Source: patent publication US11331271B2, “Buccal, sublingual and intranasal delivery of fospropofol” (The Johns Hopkins University, priority 2016, dated 2022)
Entries after “also recorded” stand apart in the source; their conditions may differ.

Test system: healthy male volunteers
Assay: Human Study 1: treatment-emergent adverse events (TEAE), safety, Modified OAA/S
Type: in vivo
Settings: for time to resolution of euphoria: one subject
Procedure: In human study 1, fospropofol disodium was formulated as a sterile aqueous solution at a concentration of 20 mg/mL. Each vial provided contained 20 mL of solution, suitable for intravenous injection. Fospropofol was administered as a single dose of 400 mg orally, directly into the duodenum by gastroscopy or intravenously over 10 min. In human study 2, fospropofol disodium in capsules (200 mg) or matching placebo was administered orally.
The first study was an absolute bioavailability study of fospropofol conducted at a single center (PRA Health Sciences) in Groningen, Netherlands, as a three-way crossover study. The study enrolled 7 healthy male volunteers between 18 and 45 years of age inclusive, with a body mass index between 18 and 28 kg/m^2. Subjects stayed in the clinical unit for three consecutive periods of 3 days each, with a 3-day washout, between periods. For six subjects, the order of the administration routes was as follows—period 1: PO, period 2: ID, and period 3: IV. For one subject the order of the administration routes was the following—period 1: ID, period 2: IV and period 3: PO. In this study a single dose of 400 mg was administered by each route. Blinding and placebo control was impractical due to the requirement of unsedated endoscopic administration of fospropofol into the duodenum. Safety and overall pharmacodynamic effect was evaluated based on adverse events, vital signs, electrocardiogram (ECG), Modified Observer's Assessment of Alertness/Sedation (OAA/S) score, clinical laboratory tests, and physical examination.

## CC(C)c1cccc(C(C)C)c1OCOP(=O)(O)O [fospropofol]
400 mg ID
  TEAE GASTROINTESTINAL DISORDERS, events (E): 1
  TEAE GASTROINTESTINAL DISORDERS, subjects (%): 14%
  TEAE GENERAL DISORDERS AND ADMINISTRATION SITE CONDITIONS, events (E): 3
  TEAE GENERAL DISORDERS AND ADMINISTRATION SITE CONDITIONS, subjects (%): 43%
  TEAE INFECTIONS AND INFESTATIONS, events (E): 1
  TEAE INFECTIONS AND INFESTATIONS, subjects (%): 14%
  TEAE NERVOUS SYSTEM DISORDERS, events (E): 3
  TEAE NERVOUS SYSTEM DISORDERS, subjects (%): 43%
  TEAE SKIN AND SUBCUTANEOUS TISSUE DISORDERS, events (E): 1
  TEAE SKIN AND SUBCUTANEOUS TISSUE DISORDERS, subjects (%): 14%
  TEAE TOTAL, events (E): 9
  TEAE TOTAL, subjects (%): 86%
  TEAE dizziness, events (E): 1
  TEAE dizziness, subjects (%): 14%
  TEAE fatigue, events (E): 2
  TEAE fatigue, subjects (%): 29%
  TEAE flatulence, events (E): 1
  TEAE flatulence, subjects (%): 14%
  TEAE herpes simplex, events (E): 1
  TEAE herpes simplex, subjects (%): 14%
  TEAE rash, events (E): 1
  TEAE rash, subjects (%): 14%
  TEAE somnolence, events (E): 2
  TEAE somnolence, subjects (%): 29%
  TEAE subrapubic pain, events (E): 1
  TEAE subrapubic pain, subjects (%): 14%
  subjects with Modified OAA/S score of 4: 43%
  subjects with Modified OAA/S score of 4 (n of 7): Three
400 mg IV
  TEAE BLOOD AND LYMPHATIC SYSTEM DISORDERS, events (E): 1
  TEAE BLOOD AND LYMPHATIC SYSTEM DISORDERS, subjects (%): 14%
  TEAE EYE DISORDERS, events (E): 5
  TEAE EYE DISORDERS, subjects (%): 71%
  TEAE GASTROINTESTINAL DISORDERS, events (E): 4
  TEAE GASTROINTESTINAL DISORDERS, subjects (%): 43%
  TEAE GENERAL DISORDERS AND ADMINISTRATION SITE CONDITIONS, events (E): 9
  TEAE GENERAL DISORDERS AND ADMINISTRATION SITE CONDITIONS, subjects (%): 57%
  TEAE MUSCULOSKELETAL AND CONNECTIVE TISSUE DISORDERS, events (E): 2
  TEAE MUSCULOSKELETAL AND CONNECTIVE TISSUE DISORDERS, subjects (%): 29%
  TEAE NERVOUS SYSTEM DISORDERS, events (E): 31
  TEAE NERVOUS SYSTEM DISORDERS, subjects (%): 100%
  TEAE PSYCHIATRIC DISORDERS, events (E): 2
  TEAE PSYCHIATRIC DISORDERS, subjects (%): 29%
  TEAE REPRODUCTVE SYSTEM AND BREAST DISORDERS, events (E): 1
  TEAE REPRODUCTVE SYSTEM AND BREAST DISORDERS, subjects (%): 14%
  TEAE SKIN AND SUBCUTANEOUS TISSUE DISORDERS, events (E): 1
  TEAE SKIN AND SUBCUTANEOUS TISSUE DISORDERS, subjects (%): 14%
  TEAE TOTAL, events (E): 56
  TEAE TOTAL, subjects (%): 100%
  TEAE burning sensation, events (E): 6
  TEAE burning sensation, subjects (%): 43%
  TEAE catheter site pain, events (E): 1
  TEAE catheter site pain, subjects (%): 14%
  TEAE diplopia, events (E): 1
  TEAE diplopia, subjects (%): 14%
  TEAE disorientation, events (E): 1
  TEAE disorientation, subjects (%): 14%
  TEAE dizziness postural, events (E): 1
  TEAE dizziness postural, subjects (%): 14%
  TEAE dizziness, events (E): 3
  TEAE dizziness, subjects (%): 43%
  TEAE dry mouth, events (E): 1
  TEAE dry mouth, subjects (%): 14%
  TEAE dyspepsia, events (E): 1
  TEAE dyspepsia, subjects (%): 14%
  TEAE ecchymosis, events (E): 1
  TEAE ecchymosis, subjects (%): 14%
  TEAE euphoric mood, events (E): 1
  TEAE euphoric mood, subjects (%): 14%
  TEAE fatigue, events (E): 2
  TEAE fatigue, subjects (%): 29%
  TEAE feeling abnormal, events (E): 1
  TEAE feeling abnormal, subjects (%): 14%
  TEAE feeling cold, events (E): 1
  TEAE feeling cold, subjects (%): 14%
  TEAE feeling drunk, events (E): 1
  TEAE feeling drunk, subjects (%): 14%
  TEAE genital pruritis male, events (E): 1
  TEAE genital pruritis male, subjects (%): 14%
  TEAE lymph node pain, events (E): 1
  TEAE lymph node pain, subjects (%): 14%
  TEAE muscle fatigue, events (E): 2
  TEAE muscle fatigue, subjects (%): 29%
  TEAE nausea, events (E): 1
  TEAE nausea, subjects (%): 14%
  TEAE paresthesia, events (E): 9
  TEAE paresthesia, subjects (%): 86%
  TEAE proctalgia, events (E): 1
  TEAE proctalgia, subjects (%): 14%
  TEAE sluggishness, events (E): 3
  TEAE sluggishness, subjects (%): 43%
  TEAE somnolence, events (E): 5
  TEAE somnolence, subjects (%): 71%
  TEAE speech disorder, events (E): 6
  TEAE speech disorder, subjects (%): 86%
  TEAE tremor, events (E): 1
  TEAE tremor, subjects (%): 14%
  TEAE visual disturbance, events (E): 4
  TEAE visual disturbance, subjects (%): 54%
  subjects with Modified OAA/S score of 4: 57%
  subjects with Modified OAA/S score of 4 (n of 7): 4
  time to resolution of euphoria: 34 min
400 mg PO
  TEAE GASTROINTESTINAL DISORDERS, events (E): 1
  TEAE GASTROINTESTINAL DISORDERS, subjects (%): 14%
  TEAE NERVOUS SYSTEM DISORDERS, events (E): 6
  TEAE NERVOUS SYSTEM DISORDERS, subjects (%): 57%
  TEAE PSYCHIATRIC DISORDERS, events (E): 1
  TEAE PSYCHIATRIC DISORDERS, subjects (%): 14%
  TEAE TOTAL, events (E): 8
  TEAE TOTAL, subjects (%): 86%
  TEAE dizziness, events (E): 1
  TEAE dizziness, subjects (%): 14%
  TEAE euphoric mood, events (E): 1
  TEAE euphoric mood, subjects (%): 14%
  TEAE nausea, events (E): 1
  TEAE nausea, subjects (%): 14%
  TEAE paresthesia, events (E): 1
  TEAE paresthesia, subjects (%): 14%
  TEAE somnolence, events (E): 4
  TEAE somnolence, subjects (%): 57%
  time to resolution of euphoria: 17 min
400 mg oral
  Modified OAA/S score, all subjects at all times: 5
400 mg, Total (PO+ID+IV)
  TEAE BLOOD AND LYMPHATIC SYSTEM DISORDERS, events (E): 1
  TEAE BLOOD AND LYMPHATIC SYSTEM DISORDERS, subjects (%): 14%
  TEAE EYE DISORDERS, events (E): 5
  TEAE EYE DISORDERS, subjects (%): 71%
  TEAE GASTROINTESTINAL DISORDERS, events (E): 6
  TEAE GASTROINTESTINAL DISORDERS, subjects (%): 57%
  TEAE GENERAL DISORDERS AND ADMINISTRATION SITE CONDITIONS, events (E): 12
  TEAE GENERAL DISORDERS AND ADMINISTRATION SITE CONDITIONS, subjects (%): 71%
  TEAE INFECTIONS AND INFESTATIONS, events (E): 1
  TEAE INFECTIONS AND INFESTATIONS, subjects (%): 14%
  TEAE MUSCULOSKELETAL AND CONNECTIVE TISSUE DISORDERS, events (E): 2
  TEAE MUSCULOSKELETAL AND CONNECTIVE TISSUE DISORDERS, subjects (%): 29%
  TEAE NERVOUS SYSTEM DISORDERS, events (E): 40
  TEAE NERVOUS SYSTEM DISORDERS, subjects (%): 100%
  TEAE PSYCHIATRIC DISORDERS, events (E): 3
  TEAE PSYCHIATRIC DISORDERS, subjects (%): 43%
  TEAE REPRODUCTVE SYSTEM AND BREAST DISORDERS, events (E): 1
  TEAE REPRODUCTVE SYSTEM AND BREAST DISORDERS, subjects (%): 14%
  TEAE SKIN AND SUBCUTANEOUS TISSUE DISORDERS, events (E): 2
  TEAE SKIN AND SUBCUTANEOUS TISSUE DISORDERS, subjects (%): 29%
  TEAE TOTAL, subjects (%): 100%
  TEAE burning sensation, events (E): 6
  TEAE burning sensation, subjects (%): 43%
  TEAE catheter site pain, events (E): 1
  TEAE catheter site pain, subjects (%): 14%
  TEAE diplopia, events (E): 1
  TEAE diplopia, subjects (%): 14%
  TEAE disorientation, events (E): 1
  TEAE disorientation, subjects (%): 14%
  TEAE dizziness postural, events (E): 1
  TEAE dizziness postural, subjects (%): 14%
  TEAE dizziness, events (E): 5
  TEAE dizziness, subjects (%): 43%
  TEAE dry mouth, events (E): 1
  TEAE dry mouth, subjects (%): 14%
  TEAE dyspepsia, events (E): 1
  TEAE dyspepsia, subjects (%): 14%
  TEAE ecchymosis, events (E): 1
  TEAE ecchymosis, subjects (%): 14%
  TEAE euphoric mood, events (E): 2
  TEAE euphoric mood, subjects (%): 29%
  TEAE fatigue, events (E): 4
  TEAE fatigue, subjects (%): 43%
  TEAE feeling abnormal, events (E): 1
  TEAE feeling abnormal, subjects (%): 14%
  TEAE feeling cold, events (E): 1
  TEAE feeling cold, subjects (%): 14%
  TEAE feeling drunk, events (E): 1
  TEAE feeling drunk, subjects (%): 14%
  TEAE flatulence, events (E): 1
  TEAE flatulence, subjects (%): 14%
  TEAE genital pruritis male, events (E): 1
  TEAE genital pruritis male, subjects (%): 14%
  TEAE herpes simplex, events (E): 1
  TEAE herpes simplex, subjects (%): 14%
  TEAE lymph node pain, events (E): 1
  TEAE lymph node pain, subjects (%): 14%
  TEAE muscle fatigue, events (E): 2
  TEAE muscle fatigue, subjects (%): 29%
  TEAE nausea, events (E): 2
  TEAE nausea, subjects (%): 14%
  TEAE paresthesia, events (E): 10
  TEAE paresthesia, subjects (%): 86%
  TEAE proctalgia, events (E): 1
  TEAE proctalgia, subjects (%): 14%
  TEAE rash, events (E): 1
  TEAE rash, subjects (%): 14%
  TEAE sluggishness, events (E): 3
  TEAE sluggishness, subjects (%): 43%
  TEAE somnolence, events (E): 11
  TEAE somnolence, subjects (%): 100%
  TEAE speech disorder, events (E): 6
  TEAE speech disorder, subjects (%): 86%
  TEAE subrapubic pain, events (E): 1
  TEAE subrapubic pain, subjects (%): 14%
  TEAE tremor, events (E): 1
  TEAE tremor, subjects (%): 14%
  TEAE visual disturbance, events (E): 4
  TEAE visual disturbance, subjects (%): 57%
400 mg, all routes
  TEAEs considered possibly or probably related to study drug: Seventy
  clinical laboratory results, vital signs, ECG, physical examination: No clinically-relevant abnormalities
  lowest observed Modified OAA/S score: 4
  serious adverse events: No subject experienced a serious adverse event; also recorded: No severe or serious TEAEs
  severity of TEAEs: mild
400 mg, all routes, after dosing
  time to resolution of TEAEs (all but one): ≤ 1 h
400 mg, all routes, postdose
  time by which all subjects had Modified OAA/S scores of 5: ≤ 1.5 h
